The term IC50 denotes the concentration that inhibits the measured activity by half.

The subject of series [1] is collagenase‐induced mouse model of ICH. Also noted: method as in PMID 15800021. Conditions: 100 mg/kg intraperitoneally for 48 hours (not with 1 mg/kg); cited from earlier work.
Another series deals with MMP‐3. Set-up: method as in PMID 25686022. Conditions: previously reported; read-out: MMP Inhibitory Activity (IC50), MMP‐3; cited from earlier work.
The target of a further series is T1, MMP‐12 (Homo sapiens, UniProt P39900).
T1 construct: GenScript (contract testing)
T1 sequence (P39900 106-470, species assumed): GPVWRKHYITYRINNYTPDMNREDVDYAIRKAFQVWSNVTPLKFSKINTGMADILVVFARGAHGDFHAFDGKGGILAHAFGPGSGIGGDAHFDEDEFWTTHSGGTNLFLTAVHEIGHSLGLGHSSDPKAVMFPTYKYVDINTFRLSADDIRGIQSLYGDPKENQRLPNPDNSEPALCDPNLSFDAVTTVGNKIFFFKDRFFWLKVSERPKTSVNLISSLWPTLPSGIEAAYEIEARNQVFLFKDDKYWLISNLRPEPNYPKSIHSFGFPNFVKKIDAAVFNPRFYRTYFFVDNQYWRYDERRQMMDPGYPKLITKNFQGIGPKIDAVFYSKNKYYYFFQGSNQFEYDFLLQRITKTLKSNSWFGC
Put plainly: MMP enzyme activity assay. The class given is biochemical. Conditions: read-out: MMP Inhibitory Activity (IC50), MMP‐12. As to the method: […]. Protease stock solutions (10 mmol/L) were diluted with assay buffer to make final test solutions containing no more than 2.0% DMSO. The samples were dispensed into plates; substrate was added and read with PHERAstar PLUS (BMG Labtech, Ortenberg, Germany) plate reader.

The next series relates to MMP‐10. Also noted: method as in PMID 25686022. Conditions: previously reported; read-out: MMP Inhibitory Activity (IC50), MMP‐10; cited from earlier work.
The next series has as its target T2, MMP‐7 (Homo sapiens, UniProt P09237).
T2 construct: GenScript (contract testing)
T2 sequence (P09237 95-267): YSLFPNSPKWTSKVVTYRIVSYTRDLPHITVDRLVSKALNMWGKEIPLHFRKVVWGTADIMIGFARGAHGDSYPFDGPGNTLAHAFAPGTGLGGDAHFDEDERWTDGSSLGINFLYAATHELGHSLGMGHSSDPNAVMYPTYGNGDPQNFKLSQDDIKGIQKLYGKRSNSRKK
As to the kind of experiment: MMP enzyme activity assay. Format: biochemical. As to the method: Protease stock solutions (10 mmol/L) were diluted with assay buffer to make final test solutions containing no more than 2.0% DMSO. The samples were dispensed into plates; substrate was added and read with PHERAstar PLUS (BMG Labtech, Ortenberg, Germany) plate reader.

For series [2], the system named is mouse model of warfarin‐associated ICH. Set-up: method as in PMID 21127298. Conditions: cited from earlier work.

Consider `CNC(=O)[C@H](Cc1c[nH]c2ccccc12)NC(=O)[C@@H](CC(=O)NO)CC(C)C` [GM6001], for which the “lesion volume and neurological outcome” value in series [1] was “decrease in lesion volume and improved neurological outcome”. In addition, the IC50 in the series on MMP‐3 is 20.7 nM; at MMP‐12, 1.2 nM; with MMP‐10, […]; on MMP‐7 it was 9 nM.

In the case of `NC[C@H]1CC[C@H](C(=O)O)CC1` [TXA, tranexamic acid], the effect on edema result in series [2] is “exacerbates edema”.

These data come from article PMC5669199, “CM352 Reduces Brain Damage and Improves Functional Recovery in a Rat Model of Intracerebral Hemorrhage” (Journal of the American Heart Association: Cardiovascular …, 2017).
